# Measurements as given in patent US6664231B1, “Anti-fungal peptides” (priority 1993, dated 2003).
# Where “and” joins values, the source holds several entries; their conditions need not be identical. Equal values may be shown once. Read-outs that look alike come from different tables or passages of the source. Square brackets hold non-standard residues; d marks the D form. Ends that are not written are not given here. Peptide text beside a SMILES is read from it. Phe(4-NH2) = Nc1ccc(C[C@H](N)C(=O)O)cc1; d2Nal = N[C@H](Cc1ccc2ccccc2c1)C(=O)O; pGlu = O=C1CC[C@@H](C(=O)O)N1; Dab = NCC[C@H](N)C(=O)O
# Key:
# [1] = test system: mouse RAW 264.7 cells incubated with E. coli O113 LPS; settings: RAW 264.7 cells with E. coli O113 LPS; concentration reversing LPS growth inhibition by 50%
# Description: (§1) An in vitro LPS neutralization screening assay for evaluation of Domain III derived peptides was developed (as described in co-owned and co-pending U.S. patent application Ser. No. 08/306,473) which provides both a measure of efficacy of each peptide (EC50) and of the toxicity/growth inhibition of each peptide (IC50).
# (§2) The cells were counted and their concentration adjusted to 2×10^5 cells/mL and 100 μL aliquots were added to each well of a 96-well microtitre plate. […] This incubation was performed in the absence or presence of peptides in varying concentrations between 25 ng/mL and 50 μg/mL. […] Cell proliferation was quantitatively measured by the addition of 1 μCi/well [^3H]-thymidine 5 hours after the time of initiation of the assay. After the 15-hour incubation, labeled cells were harvested onto glass fiber filters with a cell harvester (Inotech Biosystems, INB-384, Sample Processing and Filter Counting System, Lansing, Mich.).
# [2] = test system: mouse RAW 264.7 cells
# Description: as §1, §2
# [3] = test system: C. albicans (CA-1, Strain SLU-1); assay: Radial diffusion assay; assay type: cell-based, Candida albicans; settings: for Plate Assay (nmol), pure peptide activity: HPLC-purified peptide; for Plate Assay (nmol), pure peptide activity / Plate Assay (nmol), crude peptide activity: nanomoles required to achieve a net 30 mm^2 zone (log titration curve); for C. albicans pmol/30 mm^2 zone: pmoles of peptide added to well to achieve a 30 mm^2 zone, PROBIT analysis, crude or purified (P′) peptide
# Method in brief: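 Peptides, serially diluted 2-fold in D-PBS (top ~1 mg/mL), diffused 3 h at 37° C into pH 7.4 phosphate-buffered agarose seeded with 1×10^6 CFU/mL yeast, before overnight growth under a 6% Sabouraud overlayer. Net inhibition zones measured after Coomassie staining; PROBIT fit of log pmol vs area gave pmol for 30 mm^2.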
# [4] = RAW 264.7 cell growth inhibited by 50%
compound,measurement,setting,value
CC[C@H](C)[C@H](NC(=O)[C@H](CC(C)C)NC(=O)[C@H](Cc1c[nH]c2ccccc12)NC(=O)[C@H](CCCN)NC(=O)[C@@H](N)CCCN)C(=O)N[C@@H](CCC(N)=O)C(=O)N[C@@H](CC(C)C)C(=O)N[C@@H](CCCN)C(=O)N[C@@H](CCCN)C(N)=O [XMP 338],In Vitro LPS Neutralization EC50,[1],>25 µg/mL
same,IC50 (toxicity/growth inhibition of peptide),[2]; [4],NA (NA for IC50 means no evidence of decreased RAW cell growth at up to 50 μg/ml)
CC[C@H](C)[C@H](NC(=O)[C@H](CC(C)C)NC(=O)[C@H](Cc1c[nH]c2ccccc12)NC(=O)[C@H](CCN)NC(=O)[C@@H](N)CCN)C(=O)N[C@@H](CCC(N)=O)C(=O)N[C@@H](CC(C)C)C(=O)N[C@@H](CCN)C(=O)N[C@@H](CCN)C(N)=O [XMP 339P] (H-[Dab][Dab]WLIQL[Dab][Dab]-NH2),In Vitro LPS Neutralization EC50,[1],NA (NA for EC50 means no evidence neutralization of LPS at up to 50 μg/ml)
same,IC50 (toxicity/growth inhibition of peptide),[2]; [4],NA (NA for IC50 means no evidence of decreased RAW cell growth at up to 50 μg/ml)
CC[C@H](C)[C@H](NC(=O)[C@H](CC(C)C)NC(=O)[C@@H](N)Cc1c[nH]c2ccccc12)C(=O)N[C@@H](CCC(N)=O)C(=O)N[C@@H](CC(C)C)C(=O)N[C@@H](Cc1ccccc1)C(=O)N[C@@H](Cc1c[nH]cn1)C(=O)N[C@@H](CCCCN)C(N)=O [XMP.303P],In Vitro LPS Neutralization EC50,[1],11.79 ± 0.85 µg/mL
same,IC50 (toxicity/growth inhibition of peptide),[2]; [4],NA (NA for IC50 means no evidence of decreased RAW cell growth at up to 50 μg/ml)
CC[C@H](C)[C@H](NC(=O)[C@H](CC(C)C)NC(=O)[C@H](Cc1c[nH]c2ccccc12)NC(=O)[C@H](CCCCN)NC(=O)[C@H]1CCCN1)C(=O)N[C@@H](CCC(N)=O)C(=O)N[C@@H](CC(C)C)C(=O)N[C@@H](CCCCN)C(=O)N[C@@H](CCCCN)C(N)=O [XMP.334P],In Vitro LPS Neutralization EC50,[1],NA (NA for EC50 means no evidence neutralization of LPS at up to 50 μg/ml)
same,IC50 (toxicity/growth inhibition of peptide),[2]; [4],NA (NA for IC50 means no evidence of decreased RAW cell growth at up to 50 μg/ml)
CC[C@H](C)[C@H](NC(=O)[C@H](CC(C)C)NC(=O)[C@H](Cc1c[nH]c2ccccc12)NC(=O)[C@H](CCCCN)NC(=O)[C@@H]1CCCN1)C(=O)N[C@@H](CCC(N)=O)C(=O)N[C@@H](CC(C)C)C(=O)N[C@@H](CCCCN)C(=O)N[C@@H](CCCCN)C(N)=O [XMP.335P],In Vitro LPS Neutralization EC50,[1],NA (NA for EC50 means no evidence neutralization of LPS at up to 50 μg/ml)
same,IC50 (toxicity/growth inhibition of peptide),[2]; [4],NA (NA for IC50 means no evidence of decreased RAW cell growth at up to 50 μg/ml)
CC[C@H](C)[C@H](NC(=O)[C@H](CC(C)C)NC(=O)[C@H](Cc1c[nH]c2ccccc12)NC(=O)[C@H](Cc1ccc(N)cc1)NC(=O)[C@@H](N)Cc1ccc(N)cc1)C(=O)N[C@@H](CCC(N)=O)C(=O)N[C@@H](CC(C)C)C(=O)N[C@@H](Cc1ccc(N)cc1)C(=O)N[C@@H](Cc1ccc(N)cc1)C(N)=O [XMP.340P] (H-[Phe(4-NH2)][Phe(4-NH2)]WLIQL[Phe(4-NH2)][Phe(4-NH2)]-NH2),In Vitro LPS Neutralization EC50,[1],>50 µg/mL
same,IC50 (toxicity/growth inhibition of peptide),[2]; [4],NA (NA for IC50 means no evidence of decreased RAW cell growth at up to 50 μg/ml)
CC[C@H](C)[C@H](NC(=O)[C@H](CC(C)C)NC(=O)[C@@H](Cc1ccc2ccccc2c1)NC(=O)[C@H](CCCCN)NC(=O)[C@@H](N)CCCCN)C(=O)N[C@@H](CC(C)C)C(=O)N[C@@H](CC(C)C)C(=O)N[C@@H](CCCCN)C(=O)N[C@@H](CCCCN)C(N)=O [XMP.347P] (H-KK[d2Nal]LILLKK-NH2),In Vitro LPS Neutralization EC50,[1],1.65 ± 0.09 µg/mL
same,IC50 (toxicity/growth inhibition of peptide),[2],>25 µg/mL
H-SKVKWLIQLFHKK-NH2 [XMP.284P],In Vitro LPS Neutralization EC50,[1],4.72 ± 0.08/ μg/ml and 3.57 ± 0.09 μg/ml
H-VKWLIQLFHKK-NH2 [Peptide 289],"Plate Assay (nmol), pure peptide activity",[3],0.68 nmol
same,"Plate Assay (nmol), crude peptide activity",[3],1.542 nmol
H-VKWLIQLFHKK-NH2 [XMP.289],C. albicans pmol/30 mm^2 zone,[3],"1,542 pmol/30 mm^2 zone"
same,C. albicans pmol/30 mm^2 zone,[3]; listed as XMP.289P′,658 pmol/30 mm^2 zone
H-WLIQL-NH2 [XMP.320],C. albicans pmol/30 mm^2 zone,[3],">4,055 pmol/30 mm^2 zone"
H-WLIQLF-NH2 [XMP.316],C. albicans pmol/30 mm^2 zone,[3],b (No detectable activity up to 5 μg/well)
same,C. albicans pmol/30 mm^2 zone,[3]; listed as XMP.316P′,"g (inactive to 7,194 pmol)"
H-WLIQLF-NH2 [compound 316],"Plate Assay (nmol), pure peptide activity",[3],inactive
same,"Plate Assay (nmol), crude peptide activity",[3],11.1 nmol
H-WLIQLFH-NH2 [XMP.309],C. albicans pmol/30 mm^2 zone,[3],b (No detectable activity up to 5 μg/well)
H-WLIQLK-NH2 [XMP.321],C. albicans pmol/30 mm^2 zone,[3],">5,851 pmol/30 mm^2 zone"
H-WLIQLKK-NH2 [XMP.322],C. albicans pmol/30 mm^2 zone,[3],"3,488 pmol/30 mm^2 zone"
KKVLIQLKK-NH2 [XMP.343],C. albicans pmol/30 mm^2 zone,[3],245 pmol/30 mm^2 zone
XMP.137: C-148-161-C (SEQ ID NO:56) (CKSKVGWLIQLFHKKC),C. albicans pmol/30 mm^2 zone,[3],>2286 pmol/30 mm^2 zone
XMP.341: PYR - PYR - 153-157 - PYR - PYR (SEQ ID NO:172) ([pGlu][pGlu]WLIQL[pGlu][pGlu]; not fully specified; printed as PYR - PYR - 153-157 - PYR - PYR),C. albicans pmol/30 mm^2 zone,[3],b (No detectable activity up to 5 μg/well)
XMP.359: CD - 153-161 (SEQ ID NO:190) ([dC]WLIQLFHKK),C. albicans pmol/30 mm^2 zone,[3],b (No detectable activity up to 5 μg/well)
XMP.380: K - K - Q - L - L - L - L - K - K (SEQ ID NO:211) (KKQLLLLKK),C. albicans pmol/30 mm^2 zone,[3],886 pmol/30 mm^2 zone
XMP.382: K - K - L - L - Q - L - L - K - K (SEQ ID NO:213) (KKLLQLLKK),C. albicans pmol/30 mm^2 zone,[3],"1,437 pmol/30 mm^2 zone"
XMP.383: K - K - L - L - L - Q - L - K - K (SEQ ID NO:214) (KKLLLQLKK),C. albicans pmol/30 mm^2 zone,[3],473 pmol/30 mm^2 zone
XMP.384: K - K - L - L - L - L - Q - K - K (SEQ ID NO:215) (KKLLLLQKK),C. albicans pmol/30 mm^2 zone,[3],"2,804 pmol/30 mm^2 zone"
"XMP.390: 151-161, K @ 151 (V), P @ 152 (G) (SEQ ID NO:221) (KPWLIQLFHKK)",C. albicans pmol/30 mm^2 zone,[3],674 pmol/30 mm^2 zone
"XMP.392: 150-161, P @ 152 (G) (SEQ ID NO:223) (KVPWLIQLFHKK)",C. albicans pmol/30 mm^2 zone,[3],569 pmol/30 mm^2 zone
XMP.408: L - K - K - K - W - A - I - Q (cyclized head to tail) (SEQ ID NO:239) (LKKKWAIQ; head-to-tail cyclized),C. albicans pmol/30 mm^2 zone,[3],b (No detectable activity up to 5 μg/well)
"XMP.409: S - K - 153-157 - K - K, A @ 154 (L) (SEQ ID NO:240) (SKWAIQLKK)",C. albicans pmol/30 mm^2 zone,[3],795 pmol/30 mm^2 zone
